In patent publication EP2077092A2, “System and Methods for Screening or Analyzing Targets” (Taipei Veterans General Hospital, priority 2007, dated 2009):

Columns and labels:
Assay type in all cases: cell-based, Sprague-Dawley (SD) rats
Bax = assay: Real-time RT-PCR of Bax mRNA in IM-treated NSCs; details: Day 3, Day 5, and Day 7 of IM-treated NSCs
Description: (§1) All animals used were treated in accordance with the Animal Care and Use Committee guideline at Taipei Veterans General Hospital. The protocol of the present study was also approved by the committee. Adult Sprague-Dawley (SD) rats (8 weeks old, 250 g) were anesthetized with intraperitoneal phenobarbital (Sigma, USA), and the location of their brains was mapped. Then, the brain […]. In brief, tissues from the hippocampus of adult rats were dissociated and incubated in Hank's balanced salt solution (HBSS) containing collagenase (78 units/ml) and hyaluronidase (38 units/ml) for 10 minutes at 37°C. The tissues were then mechanically dissected and placed in a trypsin solution (1.33 mg/ml) at 37°C for another 10 minutes. Dissociated cells were then centrifuged at 150 GG for 5 minutes. […] Viable cells were counted by trypan blue exclusion and plated as 5000 cells/200 µL per well in 96-well plates (Coming Inc, Acton, MA, USA) with no substrate pretreatment. […]
(§2) For real-time RT-PCR, the total RNA was extracted using the RNAeasy kit (Qiagen, Valencia, CA, USA). […] The quantification in the unknown samples was performed with LightCycler Relative Quantification Software version 3.3 (Roche Molecular Systems, Alameda, CA, USA). […]

LPS-treated NSCs [1] = assay: TUNEL assay of LPS-induced apoptosis in NSCs; details: LPS-treated NSCs, vs LPS-treated NSCs without treatment
Bad = assay: Real-time RT-PCR of Bad mRNA in IM-treated NSCs; details: Day 3, Day 5, and Day 7 of IM-treated NSCs
Description: as §1, §2

Bcl-2 protein = Bcl-2 protein expression in NSCs by western blot and immunohistochemistry
Bcl-2 = assay: Real-time RT-PCR of Bcl-2 mRNA in IM-treated NSCs
Description: as §1, §2

NSCs [2] = assay: Immunofluorescent assay of MAP-2-positive cells in differentiating NSCs; details: Day 7 culture of IM-treated NSCs vs non IM-treated NSCs, p<0.05
NSCs [3] = assay: Immunofluorescent assay of serotonin (5-HT)-positive cells in differentiating NSCs; details: Day 7 culture of IM-treated NSCs vs non IM-treated NSCs, p<0.05
caspase 3 = assay: Caspase 3 activity ELISA in LPS-treated NSCs; details: LPS (100 ng/ml) exposure, Day 7, vs LPS-treated NSCs without treatment, p<0.05
LPS-treated NSCs [4] = assay: MTT cell survival of LPS-treated NSCs; details: vs the only LPS-treated NSCs; LPS 100 ng/ml

Structure (SMILES): CN(C)CCCN1c2ccccc2CCc2ccccc21 [IM, imipramine]
- expression of Bax (Bax): not activated
- LPS-induced apoptosis (TUNEL assay) (LPS-treated NSCs [1]): protected against LPS-induced apoptosis
- expression of Bad (Bad): not activated
- protein expression level of Bcl-2 in LPS-treated NSCs (Bcl-2 protein; 3 µM IM vs 1, 2 µM IM-LPS-treated, only LPS-treated and control groups): significantly increased
- protein levels of Bcl-2 (western blot) (Bcl-2 protein; Day 3 IM-treated NSCs vs Day 3 non-IM-treated NSCs, p<0.05): higher
- expression levels of the Bcl-2 protein (western blot) (Bcl-2 protein; Day 7 IM-treated NSCs vs Day 3 or Day 5 IM-treated NSCs, p<0.05): significantly increased
- protein expression of Bcl-2 (immunohistochemistry) (Bcl-2 protein; Day 7 IM-treated NSCs vs NSCs without the IM treatment): significantly increased
- Bcl-2 expression in NSCs (Bcl-2 protein; treatment with IM only or BDNF only): can activate Bcl-2 expression
- levels of Bcl-2 mRNA (Bcl-2; 1, 3, and 5 µM IM, Day 7, vs Day 7 non-IM-treated NSCs): significantly increased
- mRNA levels of Bcl-2 (Bcl-2; Days 5 and Day 7 IM-treated NSCs vs non IM-treated NSCs, p<0.05): significantly increased
- percentages of MAP-2-positive cells (NSCs [2]): significantly increased
- percentages of serotonin (5-HT)-positive cells (NSCs [3]): significantly increased
- apoptotic activities of caspase 3 (caspase 3): significantly decreased
- cell survival rates in the LPS-treated NSCs (LPS-treated NSCs [4]): significantly increases
